Test results: the supplement of paper PMC11451515

System: SEM cells
Assay: cell viability relative to DMSO control; higher = less cytotoxic
Conditions: 48 h
Outline: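 Library compounds in DMSO were pin-dosed in an 11-point threefold series (47 μM to 0.79 nM) onto leukemia cells in 1536-well plates (5 μl). Plates held 500 cells/well of NOMO1 or SEM or 1000 cells/well of P12-Ichikawa, each adapted for at least four passages in each medium. Luminescence was read with CellTiter-Glo One after 48 h at 37°C. Viability means the per-plate percentage relative to DMSO wells, using cell-free wells as background.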

[1] = HPLM + 10% dialyzed FBS, 0.000781 µM
[2] = HPLM + 10% dialyzed FBS, 0.00234 µM
[3] = HPLM + 10% dialyzed FBS, 0.00702 µM
[4] = HPLM + 10% dialyzed FBS, 0.0211 µM
[5] = HPLM + 10% dialyzed FBS, 0.0632 µM
[6] = HPLM + 10% dialyzed FBS, 0.19 µM
[7] = HPLM + 10% dialyzed FBS, 0.569 µM
[8] = HPLM + 10% dialyzed FBS, 1.71 µM
[9] = HPLM + 10% dialyzed FBS, 5.12 µM
[10] = HPLM + 10% dialyzed FBS, 15.4 µM
[11] = HPLM + 10% dialyzed FBS, 46.1 µM
[12] = RPMI 5 mM glucose + 10% FBS, 0.000781 µM
[13] = RPMI 5 mM glucose + 10% FBS, 0.00234 µM
[14] = RPMI 5 mM glucose + 10% FBS, 0.00702 µM
[15] = RPMI 5 mM glucose + 10% FBS, 0.0211 µM
[16] = RPMI 5 mM glucose + 10% FBS, 0.0632 µM
[17] = RPMI 5 mM glucose + 10% FBS, 0.19 µM
[18] = RPMI 5 mM glucose + 10% FBS, 0.569 µM
[19] = RPMI 5 mM glucose + 10% FBS, 1.71 µM
[20] = RPMI 5 mM glucose + 10% FBS, 5.12 µM
[21] = RPMI 5 mM glucose + 10% FBS, 15.4 µM
[22] = RPMI 5 mM glucose + 10% FBS, 46.1 µM
[23] = RPMI 5 mM glucose + 10% dialyzed FBS, 0.000781 µM
[24] = RPMI 5 mM glucose + 10% dialyzed FBS, 0.00234 µM
[25] = RPMI 5 mM glucose + 10% dialyzed FBS, 0.00702 µM
[26] = RPMI 5 mM glucose + 10% dialyzed FBS, 0.0211 µM
[27] = RPMI 5 mM glucose + 10% dialyzed FBS, 0.0632 µM
[28] = RPMI 5 mM glucose + 10% dialyzed FBS, 0.19 µM
[29] = RPMI 5 mM glucose + 10% dialyzed FBS, 0.569 µM
[30] = RPMI 5 mM glucose + 10% dialyzed FBS, 1.71 µM
[31] = RPMI 5 mM glucose + 10% dialyzed FBS, 5.12 µM
[32] = RPMI 5 mM glucose + 10% dialyzed FBS, 15.4 µM
[33] = RPMI 5 mM glucose + 10% dialyzed FBS, 46.1 µM

| SMILES | cell viability [1] | cell viability [2] | cell viability [3] | cell viability [4] | cell viability [5] | cell viability [6] | cell viability [7] | cell viability [8] | cell viability [9] | cell viability [10] | cell viability [11] | cell viability [12] | cell viability [13] | cell viability [14] | cell viability [15] | cell viability [16] | cell viability [17] | cell viability [18] | cell viability [19] | cell viability [20] | cell viability [21] | cell viability [22] | cell viability [23] | cell viability [24] | cell viability [25] | cell viability [26] | cell viability [27] | cell viability [28] | cell viability [29] | cell viability [30] | cell viability [31] | cell viability [32] | cell viability [33] |
| --- | --- | --- | --- | --- | --- | --- | --- | --- | --- | --- | --- | --- | --- | --- | --- | --- | --- | --- | --- | --- | --- | --- | --- | --- | --- | --- | --- | --- | --- | --- | --- | --- | --- |
| O=[S+]([O-])(O)c1ccc2cc(/N=N/c3cc([S+](=O)([O-])O)c4cccnc4c3O)ccc2c1 | 115% | 120% | 120% | 28.8% | 133% | 132% | 126% | 117% | 120% | 119% | 39.9% | 115% | 124% | 113% | 17.8% | 115% | 114% | 121% | 112% | 103% | 105% | 25.5% | – | – | – | – | – | – | – | – | – | – | – |
| Nc1nc(Nc2ccc([S+](N)(=O)[O-])cc2)nn1C(=O)c1c(F)cccc1F | 104% | 111% | 97.8% | 133% | 104% | 113% | 123% | 116% | 64.1% | 32.1% | 5.68% | 100% | 107% | 113% | 110% | 114% | 101% | 100% | 109% | 76.5% | 34.7% | 6.53% | 88.9% | 108% | 114% | 115% | 110% | 122% | 111% | 123% | 64.8% | 34.5% | 4.33% |
| O=P1(N(CCCl)CCCl)NCCCO1 (configuration not stated) | 113% | 104% | 96.5% | 110% | 110% | 114% | 92.8% | 111% | 84.8% | 29.5% | 17.9% | – | – | – | – | – | – | – | – | – | – | – | 96.6% | 95.6% | 98.6% | 119% | 99.7% | 102% | 109% | 84% | 80.5% | 20.2% | 11.4% |
| NCCCCCC(=O)O | 87.3% | 17% | 101% | 42.8% | 108% | 119% | 111% | 119% | 116% | 107% | 115% | 91.7% | 115% | 104% | 36.5% | 103% | 102% | 111% | 104% | 96.4% | 98% | 97.4% | 35.6% | 9.07% | 101% | 39.5% | 100% | 99.9% | 101% | 100% | 94.3% | 98% | 103% |
| NC1CCC(Nc2nc(Nc3ccc(C(=O)N4CCCCC4)cc3)c3ncn(-c4cccc(F)c4)c3n2)CC1 (configuration not stated) | 91.7% | 94.8% | 95.2% | 96.6% | 102% | 117% | 55% | 59.1% | 102% | 128% | 125% | 110% | 102% | 104% | 112% | 103% | 124% | 75.9% | 62.9% | 100% | 110% | 90.1% | 99.6% | 99% | 100% | 99.3% | 106% | 113% | 64.6% | 41.9% | 98.6% | 98.6% | 88.9% |
| O=C(O)CSCC(=O)NC1CCSC1=O (configuration not stated) | 77.6% | 98.4% | 91.5% | 80.6% | 99.3% | 91.9% | 112% | 102% | 100% | 89.5% | 92.6% | 73.3% | 87.6% | 96.4% | 92.9% | 107% | 113% | 111% | 104% | 101% | 97% | 98.8% | 83.4% | 98.4% | 100% | 100% | 115% | 105% | 107% | 108% | 118% | 104% | 94.9% |
| O=C([O-])[C@H](CC(=O)N1C[C@H]2CCCC[C@H]2C1)Cc1ccccc1 | 79.8% | 91.7% | 88.2% | 72.7% | 107% | 109% | 103% | 106% | 119% | 125% | 121% | 93.8% | 110% | 105% | 87.7% | 102% | 108% | 106% | 112% | 117% | 128% | 119% | 85.1% | 103% | 107% | 65.5% | 95.7% | 117% | 115% | 105% | 129% | 137% | 140% |
| CCC(=O)OC1CCC2C3CCC/4=C/C(=O)CC[C@@]4(C)C3CC[C@]12C (some centres not stated) | 104% | 107% | 110% | 118% | 132% | 115% | 128% | 141% | 123% | 121% | 137% | 102% | 107% | 116% | 119% | 133% | 138% | 124% | 128% | 120% | 125% | 117% | 102% | 111% | 102% | 114% | 139% | 114% | 115% | 137% | 120% | 127% | 127% |
